For the experiment, the target named is human GPBAR1 receptor (Homo sapiens (Human), UniProt Q8TDU6). Nature of the experiment: functional cAMP assay in CHO-dhfr(minus) cells expressing human GPBAR1 receptors. Type of experiment: cell-based. The conditions noted are these: CHO-dhfr(minus) cells expressing human GPBAR1, 30 min at 30° C. The procedure, abridged: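 CHO-dhfr- cells were transfected with human GPBAR1, and a clone was chosen by cAMP response to lithocholic acid. EC50 values come from the cAMP read-out; specificity was checked in non-transfected CHO cells.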
Sequence of human GPBAR1 receptor (Q8TDU6 whole entry): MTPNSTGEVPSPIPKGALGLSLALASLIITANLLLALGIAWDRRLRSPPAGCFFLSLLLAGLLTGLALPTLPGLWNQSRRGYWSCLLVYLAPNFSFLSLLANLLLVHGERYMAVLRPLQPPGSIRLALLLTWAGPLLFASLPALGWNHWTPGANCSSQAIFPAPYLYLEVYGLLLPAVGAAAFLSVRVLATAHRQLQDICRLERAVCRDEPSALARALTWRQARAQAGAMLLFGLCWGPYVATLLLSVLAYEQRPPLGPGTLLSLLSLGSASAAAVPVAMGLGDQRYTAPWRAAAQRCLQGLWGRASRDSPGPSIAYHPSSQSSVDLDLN
(In general: Cyclic AMP is a second messenger, typically raised through Gs and lowered through Gi signalling.)
`COc1cc(F)ccc1-c1ccncc1N(C)C(=O)c1cc(Cl)cc(C2CC2)c1` [Example 238, 3-Chloro-5-cyclopropyl-N-[4-(4-fluoro-2-methoxy-phenyl)-pyridin-3-yl]-N-methyl-benzamide]: the concentration for a half-maximal effect (EC50) is 23 nM.
Compound `COc1cc(F)ccc1-c1ccncc1N(Cc1ncc(C)o1)C(=O)c1cc(C(F)(F)F)cc(S(C)(=O)=O)c1` [Example 283, N-[4-(4-Fluoro-2-methoxy-phenyl)-pyridin-3-yl]-3-methanesulfonyl-N-(5-methyl-oxazol-2-ylmethyl)-5-trifluoromethyl-benzamide] registered an EC50 of 2200 nM.
On to `CCc1cc(-c2ccccc2C)c(N(C)C(=O)c2cc(C(F)(F)F)cc(C(F)(F)F)c2)cn1` [Example 220, N-(6-Ethyl-4-o-tolyl-pyridin-3-yl)-N-methyl-3,5-bis-trifluoromethyl-benzamide], for which a half-maximal effect (EC50) was put at 1980 nM.
Take `Cc1ccccc1-c1ccncc1N(CCS(C)(=O)=O)C(=O)c1cc(C(F)(F)F)nc(C(F)(F)F)c1` [Example 163, N-(2-Methanesulfonyl-ethyl)-N-(4-o-tolyl-pyridin-3-yl)-2,6-bis-trifluoromethyl-isonicotinamide]: the EC50 is 99 nM.
With `COc1ncccc1-c1ccncc1N(CC(N)=O)C(=O)c1cc(C(F)(F)F)cc(S(C)(=O)=O)c1` [Example 181, N-Carbamoylmethyl-3-methanesulfonyl-N-(2-methoxy-[3,4′]bipyridinyl-3′-yl)-5-trifluoromethyl-benzamide], the EC50 was 2950 nM.
The figure for `COc1cc(F)ccc1-c1ccncc1N(C)C(=O)c1cc(C(F)(F)F)cc(S(=O)(=O)N(C)C)c1` [Example 143, 3-Dimethylsulfamoyl-N-[4-(4-fluoro-2-methoxy-phenyl)-pyridin-3-yl]-N-methyl-5-trifluoromethyl-benzamide] is 12 nM; for `Cc1cc(-c2cc(F)ccc2C)c(N(C)C(=O)c2cc(C(F)(F)F)cc(S(C)(=O)=O)c2)cn1` [Example 264, N-[4-(5-Fluoro-2-methyl-phenyl)-6-methyl-pyridin-3-yl]-3-methanesulfonyl-N-methyl-5-trifluoromethyl-benzamide] it is 2410 nM.
As for `COc1cc(F)ccc1-c1ccncc1N(C)C(=O)c1cc(SCCCC(=O)O)cc(C(F)(F)F)c1` [Example 239, 4-(3-{[4-(4-Fluoro-2-methoxy-phenyl)-pyridin-3-yl]-methyl-carbamoyl}-5-trifluoromethyl-phenylsulfanyl)-butyric acid], the EC50 came to 508 nM.
`Cc1cc(C)nc(C(=O)N(C)c2cnccc2-c2ccccc2C)c1` [Example 121, 4,6-Dimethyl-pyridine-2-carboxylic acid methyl-(4-o-tolyl-pyridin-3-yl)-amide]: a half-maximal effect (EC50) was put at 1920 nM.
`COc1cc(F)ccc1-c1ccnc(C)c1N(C)C(=O)c1cc(C(F)(F)F)cc(S(C)(=O)=O)c1` [Example 230, N-[4-(4-Fluoro-2-methoxy-phenyl)-2-methyl-pyridin-3-yl]-3-methanesulfonyl-N-methyl-5-trifluoromethyl-benzamide]: the EC50 was 73 nM.
Consider `Cc1cccc(-c2ccncc2N(C)C(=O)c2cc(C(F)(F)F)cc(C(F)(F)F)c2)c1C` [Example 105, N-[4-(2,3-Dimethyl-phenyl)-pyridin-3-yl]-N-methyl-3,5-bis-trifluoromethyl-benzamide], for which the EC50 was found to be 485 nM.
`COC(=O)c1cc(C(=O)N(C)c2cnccc2-c2ccccc2Cl)cc(C(F)(F)F)c1` [Example 75, N-[4-(2-Chloro-phenyl)-pyridin-3-yl]-N-methyl-5-trifluoromethyl-isophthalamic acid methyl ester] had a 50% effective concentration (EC50) of 452 nM.
The same measure for `COc1nccc(-c2ccncc2N(C)C(=O)c2cc(C(F)(F)F)cc(C(F)(F)F)c2)c1Cl` [Example 50, N-(3′-Chloro-2′-methoxy-[4,4′]bipyridinyl-3-yl)-N-methyl-3,5-bis-trifluoromethyl-benzamide]: 678 nM; for `COCCN(C(=O)c1cc(C(F)(F)F)cc(S(C)(=O)=O)c1)c1cnccc1-c1c(F)cccc1OC` [Example 229, N-[4-(2-Fluoro-6-methoxy-phenyl)-pyridin-3-yl]-3-methanesulfonyl-N-(2-methoxy-ethyl)-5-trifluoromethyl-benzamide]: 27 nM.
For the compound `COC(=O)CN(C(=O)c1cc(C(F)(F)F)cc(S(=O)(=O)N(C)C)c1)c1cnccc1-c1cccnc1OC` [Example 178, Methyl 2-(3-(N,N-dimethylsulfamoyl)-N-(2-methoxy-3,4′-bipyridin-3′-yl)-5-(trifluoromethyl)benzamido)acetate], the EC50 stood at 49 nM.
The same measure for `Cc1nc(C)c(-c2ccncc2N(C)C(=O)c2cc(C(F)(F)F)cc(C(F)(F)F)c2)s1` [Example 209, N-[4-(2,4-Dimethyl-thiazol-5-yl)-pyridin-3-yl]-N-methyl-3,5-bis-trifluoromethyl-benzamide]: 1470 nM.
The figure for `COc1cc(F)ccc1-c1cc(C)ncc1N(C)C(=O)c1cc(SC2COC2)cc(C(F)(F)F)c1` [Example 310, N-[4-(4-Fluoro-2-methoxy-phenyl)-6-methyl-pyridin-3-yl]-N-methyl-3-(oxetan-3-ylsulfanyl)-5-trifluoromethyl-benzamide] is 41 nM; for `COc1ncc(Cl)cc1-c1ccncc1N(C)C(=O)c1cc(C(F)(F)F)cc(C(F)(F)F)c1` [Example 45, N-(5-Chloro-2-methoxy-[3,4′]bipyridinyl-3′-yl)-N-methyl-3,5-bis-trifluoromethyl-benzamide] it is 302 nM.
On to `COc1cc(F)ccc1-c1ccncc1N(CCS(C)(=O)=O)C(=O)c1cc(C(F)(F)F)cc(C(F)(F)F)c1` [Example 192, N-[4-(4-Fluoro-2-methoxy-phenyl)-pyridin-3-yl]-N-(2-methanesulfonyl-ethyl)-3,5-bis-tri fluoro methyl-benzamide], for which the concentration for a half-maximal effect (EC50) amounted to 105 nM.
`CN(C(=O)c1cc(C(F)(F)F)cc(S(C)(=O)=O)c1)c1cnccc1-c1cccnc1OC1CN(C(=O)OC(C)(C)C)C1` [Example 320, 3-{3′-[(3-Methanesulfonyl-5-trifluoromethyl-benzoyl)-methyl-amino]-[3,4′]bipyridinyl-2-yloxy}-azetidine-1-carboxylic acid tert-butyl ester] showed an EC50 of 2720 nM.
The figure for `CN(C(=O)c1cc(C(F)(F)F)cc(C(F)(F)F)c1)c1cnccc1-c1cccc(F)c1F` [Example 40, N-[4-(2,3-Difluoro-phenyl)-pyridin-3-yl]-N-methyl-3,5-bis-trifluoromethyl-benzamide] is 107 nM; for `Cc1ccc(C(=O)O)cc1-c1ccncc1N(C)C(=O)c1cc(C(F)(F)F)cc(C(F)(F)F)c1` [Example 84, 3-{3-[(3,5-Bis-trifluoromethyl-benzoyl)-methyl-amino]-pyridin-4-yl}-4-methyl-benzoic acid] it is 2020 nM.
`O=C(c1cc(C(F)(F)F)cc(C(F)(F)F)c1)N(CC(F)(F)F)c1cnccc1-c1ccccc1Cl` [Example 85, N-[4-(2-Chloro-phenyl)-pyridin-3-yl]-N-(2,2,2-trifluoro-ethyl)-3,5-bis-trifluoromethyl-benzamide] came in with an EC50 of 200 nM.
Take `COc1cc(F)ccc1-c1ccncc1N(CC#N)C(=O)c1cc(C(F)(F)F)cc(S(C)(=O)=O)c1` [Example 228, N-Cyanomethyl-N-[4-(4-fluoro-2-methoxy-phenyl)-pyridin-3-yl]-3-methanesulfonyl-5-trifluoromethyl-benzamide]: the EC50 was 57 nM.

One may read the EC50 as the midpoint of the concentration-response curve. A low value points to a more potent agent.

Values taken from patent US10385022B2, “3-amino-pyridines as GPBAR1 agonists” (HOFFMANN-LA ROCHE INC., priority 2011, dated 2019).
